Results taken from patent US11980209B2, “Consumables” (GIVAUDAN SA, priority 2007, dated 2024).
“Also recorded” adds a separate entry of the source.

Key:
Assay type in all cases: in vivo, human
[1] = test system: perceived sweet taste (sweet sensitive panelists); assay: Ranking test with R-index, isointensity of 100 ppm trilobatin in water (Example 1b); conditions: for R-index: critical values 35.39-64.61%
Description: The sensory evaluation was conducted using a ranking method. Samples at ambient temperature were randomly presented in 15 ml blind aliquots (unidentifiable by panelists). Panels consisted of 15 sweet sensitive subjects and samples were presented in 2 replications over 1 session. After tasting each sample, the mouth was rinsed thoroughly with water at ambient temperature prior to tasting the next sample. Panelists were presented with 0.5%, 1%, 1.5% and 2% sucrose solutions in water and a fifth sample of 100 ppm trilobatin in water. Subjects were asked to rank the samples from low to high with respect to perceived sweet taste. R-indices were calculated for 100 ppm trilobatin versus either 0.5%, 1%, 1.5% or 2% sucrose.

[2] = test system: perceived sweet taste (sweet sensitive panelists); assay: Ranking test, isointensity of 200 ppm trilobatin in water (Example 1c)
Description: The sensory evaluation was conducted using the method described in example 1b. The panels consisted of 7 sweet sensitive panelists. Panelists were presented with 0.5%, 1%, and 1.5% sucrose solutions in water and a fourth sample of 200 ppm trilobatin in water. Panelists were asked to rank the samples from low to high with respect to perceived sweet taste. 200 ppm trilobatin in water was determined to be isosweet to 1% sucrose.
The sweetness detection threshold for individuals within the average consumer group varies from below 0.4% to 0.7% sucrose or more. All examples were performed with sweet sensitive panelists able to detect at least 0.5% sucrose or less. Extrapolating from examples 1 a, b, and c, the concentration detectable by the average consumer will therefore be higher, and the average concentration near the sweetness detection threshold of the average consumer will be about 100 to 200 ppm.

[3] = test system: perceived sweet taste (sweet sensitive panelists); assay: Ranking test with R-index, isointensity of 100 ppm trilobatin in 7% sucrose solution (Example 2a); conditions: for R-index: critical values 35.39-64.61%
Description: The sensory evaluation was conducted using a ranking method. Samples at ambient temperature were randomly presented in 15 ml blind aliquots (unidentifiable by panelists). Panels consisted of 15 sweet sensitive subjects and samples were presented in 2 replications over 1 session. After tasting each sample, the mouth was rinsed thoroughly with water at ambient temperature prior to tasting the next sample. Panelists were presented with 7%, 8%, 9%, 10% and 11% sucrose solutions in water and a sixth sample of 100 ppm trilobatin in 7% sucrose. Subjects were asked to rank the samples from low to high with respect to perceived sweet taste. R-indices were calculated for 100 ppm trilobatin in 7% sucrose versus either 7%, 8%, 9%, 10% or 11% sucrose.

[4] = test system: perceived sweet taste (sweet sensitive panelists); assay: Direct comparison of 100 ppm trilobatin in 7% sucrose with 7.5% sucrose solution (Example 2a); conditions: all of 8 sweet sensitive panelists
[5] = test system: perceived sweetness (sweet sensitive panelists); assay: Sweetness enhancement by trilobatin in yoghurt (Example 9)
Description: Trilobatin was tested by 6 sweet sensitive panelists in plain nonfat yoghurt.
Samples of 62.5 ppm, 125 ppm, and 500 ppm trilobatin in yoghurt sweetened with 5% sucrose were compared by panelists to a 5% sucrose sweetened yoghurt and a 7% sucrose sweetened yoghurt sample; the results are indicated in the table below.

[6] = test system: perceived sweetness (panelists); assay: Sweetness detection threshold of trilobatin in milk (Example 10)
Description: Trilobatin was tested by 6 panelists in whole milk.
Milk samples were 62.5 ppm, 125 ppm, 250 ppm, 500 ppm trilobatin; 1% sucrose, and 2% sucrose.

[7] = test system: perceived sweetness (sweet sensitive panelists); assay: Sweetness enhancement by trilobatin in cereals (Example 11); conditions: tested in whole milk, vs cereal with 1% added sucrose
Description: Trilobatin was tested by 4 sweet sensitive panelists in cereal samples (cereals from Kix, General Mills; USA). The cereal is a comparatively low sugar product and contains 3 g sucrose per 30 g cereal. Panelists tested the samples in whole milk. To the cereal samples, sucrose was topically added by spraying the corresponding amount of a 10% sucrose solution in water to give 1%. The samples were baked at 250° C. for about 15 minutes in a convection oven to dry/remove the water. Similarly, trilobatin was applied to cereal samples as a 0.1% solution in 50/50 w/w ethanol/water to give various trilobatin concentrations (100 ppm, 200 ppm, 400 ppm).

[8] = test system: perceived sweetness (sweet sensitive panelists); assay: Ranking test with R-index, sweetness of trilobatin (750 ppm) in yogurt (Example 13); conditions: for R-index: critical value 37.4 to 62.6%
Description: The sucrose concentration isointense to 750 ppm trilobatin in a plain yogurt base was determined as follows.
Samples contained a plain yogurt base with 750 ppm trilobatin, or the same plain yogurt base with sucrose in various concentrations (0%, 0.5%, 1.0%, 1.5%, and 2.0% sucrose).
30 ml of each yogurt sample was served cold, in random order, to 21 sweet sensitive panelists. In two replications over 1 session, panelists were asked to rank the samples from least sweet to most sweet. The data was subjected to an R-index analysis.

[9] = 100 ppm trilobatin in 7% sucrose
[10] = 62.5 ppm trilobatin in yoghurt sweetened with 5% sucrose
[11] = 125 ppm trilobatin in yoghurt sweetened with 5% sucrose
[12] = 500 ppm trilobatin in 5% sucrose yoghurt
[13] = 750 ppm TL in plain yogurt vs 0% sucrose yogurt
[14] = 750 ppm TL in plain yogurt vs 0.5% sucrose yogurt
[15] = 750 ppm TL in plain yogurt vs 1% sucrose yogurt
[16] = 750 ppm TL in plain yogurt vs 1.5% sucrose yogurt
[17] = 750 ppm TL in plain yogurt vs 2% sucrose yogurt

For `O=C(CCc1ccc(O)cc1)c1c(O)cc(O[C@@H]2O[C@H](CO)[C@@H](O)[C@H](O)[C@H]2O)cc1O` [trilobatin, 1-[4-(beta-D-glucopyranosyloxy)-2,6-dihydroxyphenyl]-3-(4-hydroxyphenyl)-1-propanone], the “sample sweetness (trilobatin, 100 ppm)” value ([1]; 100 ppm in water vs 0.5% sucrose solution) was “Isosweet”, the “sample sweetness (trilobatin, 100 ppm)” value ([1]; 100 ppm in water vs 1.0% sucrose solution) was “Less sweet” and the “sample sweetness (trilobatin, 100 ppm)” value ([1]; 100 ppm in water vs 1.5% sucrose solution) was “Less sweet”. For the same compound, the “sample sweetness (trilobatin, 100 ppm)” value ([1]; 100 ppm in water vs 2.0% sucrose solution) was “Less sweet”, the isointensity to sucrose ([1]; 100 ppm trilobatin in water) was 0.5 % sucrose and the R-index ([1]; 100 ppm trilobatin in water vs 0.5% sucrose) was 44%. It also gave a R-index ([1]; 100 ppm trilobatin in water vs 1.0% sucrose) of 13%, a R-index ([1]; 100 ppm trilobatin in water vs 1.5% sucrose) of 0% and a R-index ([1]; 100 ppm trilobatin in water vs 2.0% sucrose) of 0%. The isointensity to sucrose ([2]; 200 ppm trilobatin in water) was 1 % sucrose, the “average concentration near the sweetness detection threshold of the average consumer” value ([2]; extrapolating from examples 1a, b and c) was 100 to 200 ppm and the “added sucrose sweetness intensity” value [3, 9] was 1 ° Brix. For the same compound, the “expected isointensity to sucrose assuming a merely additive effect” value [3, 9] was 7.5 % sucrose, the isointensity to sucrose [3, 9] was 8 % sucrose and the R-index ([3]; 100 ppm trilobatin in 7% sucrose vs 7% sucrose) was 79%. It also gave a R-index ([3]; 100 ppm trilobatin in 7% sucrose vs 8% sucrose) of 38%, a R-index ([3]; 100 ppm trilobatin in 7% sucrose vs 9% sucrose) of 12% and a R-index ([3]; 100 ppm trilobatin in 7% sucrose vs 10% sucrose) of 1%. For the same compound, the R-index ([3]; 100 ppm trilobatin in 7% sucrose vs 11% sucrose) was 0%, the “sample sweetness (7% sucrose + 100 ppm trilobatin)” value ([3]; vs 7% sucrose solution) was “Sweeter” and the “sample sweetness (7% sucrose + 100 ppm trilobatin)” value ([3]; vs 8% sucrose solution) was “Isosweet”. The “sample sweetness (7% sucrose + 100 ppm trilobatin)” value ([3]; vs 9% sucrose solution) was “Less sweet”, the “sample sweetness (7% sucrose + 100 ppm trilobatin)” value ([3]; vs 10% sucrose solution) was “Less sweet” and the “sample sweetness (7% sucrose + 100 ppm trilobatin)” value ([3]; vs 11% sucrose solution) was “Less sweet”. For the same compound, the “taste in direct comparison with 7.5% sucrose solution” value [4] was “significantly sweeter”, the “sweetness trilobatin compared to 5% sucrose sample” value [5, 10] was “+ sweeter” and the “sweetness trilobatin compared to 7% sucrose sample” value [5, 10] was “less sweet”. The “sweetness trilobatin compared to 5% sucrose sample” value [5, 11] was “++ sweeter”, the “sweetness trilobatin compared to 7% sucrose sample” value [5, 11] was “less sweet” and the “sucrose level that the 5% sucrose sample tastes like” value [5, 12] was 7%. For the same compound, the “sweetness enhancement effect equivalent to added sucrose” value [5, 12] was 1 % sucrose, the “Trilobatin sample sweetness compared to sucrose” value ([6]; 62.5 ppm in whole milk, 6/6 panelists) was “below 1% sucrose (6/6)” and the “Trilobatin sample sweetness compared to sucrose” value ([6]; 125 ppm in whole milk, 6/6 panelists) was “below 1% sucrose (6/6)”. The “Trilobatin sample sweetness compared to sucrose” value ([6]; 250 ppm in whole milk, 6/6 panelists) was “below 1% sucrose (6/6)”, the “Trilobatin sample sweetness compared to sucrose” value ([6]; 500 ppm in whole milk, 3/6 panelists (below)) was “below 1% sucrose (3/6)” and the Sweetness trilobatin sample ([7]; 100 ppm trilobatin on cereal) was “less sweet than 1% sucrose”. For the same compound, the Sweetness trilobatin sample ([7]; 200 ppm trilobatin on cereal) was “sweeter than 1% sucrose”, the Sweetness trilobatin sample ([7]; 400 ppm trilobatin on cereal) was “much sweeter than 1% sucrose,; also recorded: too sweet” and the “sweetness TL sample” value [8, 13] was “sweeter”. For the same compound, the R-index [8, 13] was 82.6%, the “sweetness TL sample” value [8, 14] was “isosweet” and the R-index [8, 14] was 58.5%. For the same compound, the “sweetness TL sample” value [8, 15] was “less”, the R-index [8, 15] was 14.7% and the “sweetness TL sample” value [8, 16] was “less”. The R-index [8, 16] was 4.4%, the “sweetness TL sample” value [8, 17] was “less” and the R-index [8, 17] was 3.3%. The isointensity to sucrose ([8]; 750 ppm trilobatin in plain yogurt) was 0.5 % sucrose.
